The assay has as its target Methylosome protein 50/Protein arginine N-methyltransferase 5 (Homo sapiens, UniProt O14744+Q9BQA1). In words: Inhibition of recombinant N-terminal FLAG-tagged human full-length PRMT5/full length human MEP50 extracted from baculovirus expression system using [3H]-SAM as substrate preincubated for 15 mins followed by substrate addition and measured after 60 mins by multimode plate reader analysis.

Broadly, the IC50 is the concentration needed to halve the response being measured.

Chain of Methylosome protein 50/Protein arginine N-methyltransferase 5 (O14744 whole entry): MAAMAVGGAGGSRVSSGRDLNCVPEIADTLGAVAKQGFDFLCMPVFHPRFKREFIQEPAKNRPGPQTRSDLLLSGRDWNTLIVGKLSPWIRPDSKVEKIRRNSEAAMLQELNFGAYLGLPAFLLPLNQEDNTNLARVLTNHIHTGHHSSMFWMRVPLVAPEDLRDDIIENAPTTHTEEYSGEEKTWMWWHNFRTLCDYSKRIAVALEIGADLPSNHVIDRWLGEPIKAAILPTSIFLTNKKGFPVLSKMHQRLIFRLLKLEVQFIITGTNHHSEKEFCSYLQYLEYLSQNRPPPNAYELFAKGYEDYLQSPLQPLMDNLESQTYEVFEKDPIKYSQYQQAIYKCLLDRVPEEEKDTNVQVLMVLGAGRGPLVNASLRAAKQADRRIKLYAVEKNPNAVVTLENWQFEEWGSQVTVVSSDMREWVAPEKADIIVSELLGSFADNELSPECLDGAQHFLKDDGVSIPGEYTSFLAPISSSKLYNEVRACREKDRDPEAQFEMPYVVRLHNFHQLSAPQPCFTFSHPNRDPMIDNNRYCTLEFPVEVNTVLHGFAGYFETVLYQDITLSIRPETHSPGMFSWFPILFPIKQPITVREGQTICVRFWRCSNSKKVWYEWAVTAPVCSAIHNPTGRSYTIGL
Chain of Methylosome protein 50/Protein arginine N-methyltransferase 5 (Q9BQA1 whole entry): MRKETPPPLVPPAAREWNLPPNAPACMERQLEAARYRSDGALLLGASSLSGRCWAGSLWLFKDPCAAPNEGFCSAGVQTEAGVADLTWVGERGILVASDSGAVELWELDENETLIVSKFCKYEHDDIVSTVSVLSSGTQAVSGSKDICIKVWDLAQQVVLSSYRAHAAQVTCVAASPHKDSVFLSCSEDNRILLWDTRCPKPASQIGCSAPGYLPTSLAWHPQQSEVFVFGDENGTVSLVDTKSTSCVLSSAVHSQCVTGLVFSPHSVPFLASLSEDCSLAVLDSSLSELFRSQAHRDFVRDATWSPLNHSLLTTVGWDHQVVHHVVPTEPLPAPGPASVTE

Consider `CC(=O)N1CCC(Nc2cc3c(cn2)C2(CC2)CN(C[C@H](O)CN2CCc4ccccc4C2)C3=O)CC1` [US20240116918, Example 1], for which the IC50 was 33 nM.

The values above are taken from BindingDB's records for PubMed 39722476 (Nanjing University of Chinese Medicine).
